Holding throughout (format): physicochemical
Series [1] is described as follows: Slurry of Form 4 in various solvents and solvent/water mixtures. The following applies: 20° C. to 60° C.
A short description of series [2]: Transformation of Form 4 at elevated temperature. The following applies: temperatures >110° C.
Series [3] is described as follows: Competing long-term slurry equilibration experiments including Form A and Form B. The following applies: competing slurries of Form A and Form B, various solvents, 5° C. to 65° C.; all conditions tested. As to the method: The competing long-term slurry equilibration experiments including Form A and Form B were performed in various solvents in the temperature range from 5° C. to 65° C.

Structures are written as SMILES.

For the compound `Cc1ccc(-c2noc(C)c2COc2ccc(C(=O)NC3CCOCC3)nn2)cn1` [Form 4, 6-((5-methyl-3-(6-methylpyridin-3-yl)isoxazol-4-yl)methoxy)-N-(tetrahydropyran-4-yl)pyridazine-3-carboxamide], in series [1], the “solid form transformation in slurry” value is given as “transform to Form B”. Besides, in series [2], the “solid form transformation on heating” value is “transform to Form A”.
Regarding `Cc1ccc(-c2noc(C)c2COc2ccc(C(=O)NC3CCOCC3)nn2)cn1` [Form B, 6-((5-methyl-3-(6-methylpyridin-3-yl)isoxazol-4-yl)methoxy)-N-(tetrahydropyran-4-yl)pyridazine-3-carboxamide], the “stability of the crystalline form” value in series [3] was “superior stability”.

Source of the values: patent US20250171428A1, “CRYSTALLINE FORMS OF 6-((5-METHYL-3-(6-METHYLPYRIDIN-3-YL)ISOXAZOL-4- YL)METHOXY)- N -(TETRAHYDRAPYRAN-4-YL)PYRIDAZINE-3-CARBOXAMIDE” (Hoffmann-La Roche Inc., priority 2022, published 2025).
